From PubChem BioAssay (NCI) come the findings set out here.

Where “and” joins values, the source holds several entries; their conditions need not be identical. Equal values may be shown once.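 Growth conditions: 96-well plates. Treatment: test compound, 48 hours, 5 concentrations. Analysis: linear interpolation between bracketing concentrations; unreached endpoints set to highest concentration. Here, GI50 denotes the concentration required for 50% inhibition of growth. TGI: concentration producing complete growth inhibition.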

Some test systems named below: MALME-3M melanoma; TK-10 renal; SF-539 CNS; BT-549 breast; UO-31 renal; OVCAR-8 ovarian; EKVX NSCLC; NCI-H226 lung; U251 CNS; SW-620 colon.
Holding throughout (experiment): NCI tumour cell line growth inhibition, 48 h

Turning to `CC1(N)CCN(c2cnc(-c3cccc(Cl)c3Cl)c(N)n2)CC1`, the GI50 with MALME-3M melanoma was 16.4 µM; in the assay on TK-10 renal, 2.8 µM; with SF-539 CNS it was 12.9 µM; in the assay on BT-549 breast it was 10.8 µM; in the assay on UO-31 renal, 3.3 µM; with OVCAR-8 ovarian it was 28.2 µM. The GI50 in the assay with EKVX NSCLC was 2.58 µM; in the assay with NCI-H226 lung, 3.2 µM; in the assay with U251 CNS it was 9.02 µM; with SW-620 colon it was 19.3 µM. Besides, the TGI was 32.1 µM in the assay on MALME-3M melanoma; 53.2 µM in the assay on TK-10 renal; 31.5 µM with SF-539 CNS; 26.2 µM with BT-549 breast; 17.9 µM in the assay on UO-31 renal; more than 100 µM in the assay with OVCAR-8 ovarian. Further, the TGI in the assay on EKVX NSCLC was more than 100 µM; in the assay on NCI-H226 lung it was more than 100 µM; in the assay on U251 CNS it was 91.2 µM; in the assay on SW-620 colon, more than 100 µM.

With `CCCN(CCC)c1ccc(/C=N/NC(=O)c2cccnc2)c(OC)c1`, the GI50 in the assay with MALME-3M melanoma is 18.8 µM; in the assay on TK-10 renal, 28.7 µM; in the assay with SF-539 CNS it was 28.3 µM; with BT-549 breast it was 28.4 µM; with UO-31 renal, 17.4 µM; in the assay with OVCAR-8 ovarian, 29.9 µM. Also, the GI50 with EKVX NSCLC was 16.9 µM; in the assay on NCI-H226 lung, 32 µM; in the assay with U251 CNS, 23.2 µM; in the assay on SW-620 colon, 24.5 µM. The TGI was 50.4 µM in the assay with MALME-3M melanoma; 90.1 µM in the assay with TK-10 renal; more than 100 µM in the assay with SF-539 CNS; 84.8 µM in the assay on BT-549 breast; 71.6 µM in the assay on UO-31 renal; more than 100 µM in the assay on OVCAR-8 ovarian. The TGI in the assay on EKVX NSCLC was 59.2 µM; in the assay with NCI-H226 lung it was more than 100 µM; in the assay on U251 CNS it was more than 100 µM; with SW-620 colon, more than 100 µM.

On to `COc1cc(C2=N/C(=C/c3cccs3)C(=O)O2)cc(OC)c1OC`, for which the TGI in the assay on MALME-3M melanoma, with TK-10 renal, in the assay on SF-539 CNS, in the assay on BT-549 breast, in the assay with OVCAR-8 ovarian and in the assay on EKVX NSCLC was more than 100 µM in each case. Moreover, the TGI with NCI-H226 lung, in the assay with U251 CNS and in the assay on SW-620 colon was more than 100 µM throughout.

For `CC(C)=CCC/C(C)=C\CCC1(C)OC(=O)C2CC21` (stereo not given), the TGI in the assay with MALME-3M melanoma was more than 100 µM; in the assay on TK-10 renal it was more than 100 µM; in the assay with BT-549 breast, more than 100 µM; in the assay with UO-31 renal, more than 100 µM; in the assay on OVCAR-8 ovarian it was > 100 µM and 45.5 µM; in the assay with EKVX NSCLC it was more than 100 µM. Further, the TGI in the assay with NCI-H226 lung was > 100 µM and 42.6 µM; in the assay on U251 CNS it was > 100 µM and 61.4 µM; in the assay with SW-620 colon it was more than 100 µM. Moreover, the GI50 with OVCAR-8 ovarian was 71.6 µM and 20.3 µM; in the assay on EKVX NSCLC it was > 100 µM and 40 µM; with NCI-H226 lung, 48.4 µM and 18.8 µM; in the assay on U251 CNS it was 51.5 µM and 24.1 µM; in the assay on SW-620 colon it was 84.1 µM and 33.8 µM.

Turning to `Nc1ccc(-c2cccs2)cc1NC(=O)c1ccc(CCCC(=O)Nc2ccc(C3CC3N)cc2)cc1` (stereo not given), the GI50 is 1.06 µM in the assay on MALME-3M melanoma; 2.44 µM with TK-10 renal; 2.42 µM with SF-539 CNS; 2.69 µM with BT-549 breast; 23.3 µM in the assay on UO-31 renal; 1.65 µM in the assay on OVCAR-8 ovarian. Also, the GI50 in the assay with EKVX NSCLC is 3.5 µM; in the assay on NCI-H226 lung, 2.7 µM; with U251 CNS it was 1.6 µM. Besides, the TGI was 3.77 µM in the assay on MALME-3M melanoma; 39.2 µM with TK-10 renal; 7.94 µM with SF-539 CNS; more than 100 µM in the assay on BT-549 breast; more than 100 µM in the assay with UO-31 renal; 4.48 µM with OVCAR-8 ovarian. The results for the TGI with EKVX NSCLC, with NCI-H226 lung and with U251 CNS were more than 100 µM, 7.57 µM and 3.16 µM, respectively.

As to `COc1ccc2c(c1)C(=O)/C(=C/c1ccc([N+](=O)[O-])o1)O2`, the GI50 in the assay with MALME-3M melanoma was 1.61 µM; with TK-10 renal, 1.05 µM; in the assay on SF-539 CNS, 1.76 µM; in the assay with BT-549 breast, 1.53 µM; with UO-31 renal it was 0.796 µM; in the assay on OVCAR-8 ovarian it was 1.21 µM. For the same compound, the results for the GI50 with NCI-H226 lung, with U251 CNS and in the assay on SW-620 colon were 1.78 µM, 1.64 µM and 0.459 µM, respectively. Further, the TGI was 3.48 µM in the assay on MALME-3M melanoma; 2.59 µM in the assay with TK-10 renal; 3.91 µM with SF-539 CNS; 3.44 µM in the assay on BT-549 breast; 2.46 µM with UO-31 renal; 5.4 µM in the assay on OVCAR-8 ovarian. The TGI in the assay with NCI-H226 lung was found to be 5.83 µM; in the assay on U251 CNS, 3.43 µM; in the assay with SW-620 colon, 1.22 µM.

In the case of `Oc1c(Cl)cc(Cl)cc1C(c1cc(Cl)cc(Cl)c1O)C(Cl)(Cl)Cl`, the GI50 in the assay on MALME-3M melanoma was 2.8 µM; in the assay with TK-10 renal, 4.26 µM; with SF-539 CNS, 3.17 µM; in the assay with BT-549 breast, 2.27 µM; in the assay on OVCAR-8 ovarian, 3.12 µM; in the assay with EKVX NSCLC it was 1.61 µM. Also, the figures for the GI50 in the assay on NCI-H226 lung, in the assay with U251 CNS and in the assay on SW-620 colon were 2.18 µM, 2.52 µM and 2.98 µM, respectively. In addition, the TGI in the assay with MALME-3M melanoma stood at 7.2 µM; in the assay on TK-10 renal, 16 µM; with SF-539 CNS it was 13 µM; in the assay with BT-549 breast, 6.93 µM; in the assay with OVCAR-8 ovarian it was 15.7 µM; in the assay on EKVX NSCLC, 4.51 µM. The TGI was 5.89 µM in the assay on NCI-H226 lung, 14.4 µM with U251 CNS and 12.2 µM in the assay with SW-620 colon.

Turning to `CCOC(=O)C#Cc1c(C(=O)OCC)nnn1Cc1ccc([N+](=O)[O-])cc1`, the GI50 with MALME-3M melanoma was 1.99 µM; in the assay on TK-10 renal, 1.87 µM; with BT-549 breast it was 5.07 µM; in the assay with UO-31 renal, 1.75 µM; in the assay with OVCAR-8 ovarian, 3.72 µM; with EKVX NSCLC, 16.4 µM. Moreover, the GI50 in the assay with NCI-H226 lung is 1.72 µM; in the assay with U251 CNS, 8.89 µM; in the assay with SW-620 colon, 1.85 µM. Besides, the TGI in the assay with MALME-3M melanoma came to 4.29 µM; in the assay on TK-10 renal it was 3.33 µM; with BT-549 breast it was 17 µM; in the assay on UO-31 renal, 3.78 µM; in the assay on OVCAR-8 ovarian, 11.1 µM; in the assay with EKVX NSCLC, 32.9 µM. Besides, the results for the TGI in the assay on NCI-H226 lung, with U251 CNS and with SW-620 colon were 3.33 µM, 20.9 µM and 3.79 µM, respectively.
